These results are taken from PubChem BioAssay (NCI).

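Cultured in 96-well plates, cells were exposed to test compound for 48 hours across five concentrations. TGI is the concentration that stops growth completely.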

Holding throughout (test): growth of human tumour cells (NCI), 48 h
For assay [1], the system named is 786-0 renal.
The test system of assay [2] is BT-549 breast.
Assay [3] has as its system CAKI-1 renal.
In assay [4] the test system is CCRF-CEM leukemia.
Assay [5] has as its system COLO 205 colon.
In assay [6] the test system is DU-145 prostate.
The subject of assay [7] is IGROV1 ovarian.
Assay [8] has as its system KM12 colon.
In assay [9] the test system is MALME-3M melanoma.
Assay [10] has as its system MDA-N.
Assay [11] relates to MOLT-4 leukemia.
In assay [12] the test system is NCI-H226 lung.
Assay [13] has as its system PC-3 prostate.
Assay [14] concerns SF-268 CNS.
Assay [15] deals with SK-MEL-28 melanoma.
Assay [16] concerns TK-10 renal.
Assay [17] deals with U251 CNS.
In assay [18] the test system is UACC-257 melanoma.
Assay [19] concerns UO-31 renal.
The subject of assay [20] is RXF 393 renal.

For `C/C(=N\NC(=S)N1CCCCC1)c1nc2ncccc2[nH]1`, the TGI in assay [1] was greater than 100 µM; in assay [2], 28.3 µM; in assay [3] it was greater than 100 µM; in [4] it was 17.2 µM; in assay [5] it was greater than 100 µM; in assay [6], 86.3 µM. The TGI in assay [7] is greater than 100 µM; in assay [8], greater than 100 µM; in [9], greater than 100 µM; in assay [10] it was 47.9 µM; in [11], 19.9 µM; in assay [12] it was 26.7 µM. For the same compound, the TGI in assay [13] was greater than 100 µM; in assay [14] it was greater than 100 µM; in assay [15], 37.7 µM; in [16], 68.4 µM; in assay [17] it was greater than 100 µM; in assay [18], 31.9 µM. Moreover, the TGI in assay [19] was greater than 100 µM.
With `CCCCS(=O)CCC(N)P(=O)(O)O` (stereo not drawn), the TGI in assay [1], in assay [2], in assay [3], in [4], in assay [5] and in assay [6] was greater than 100 µM each time. In addition, the TGI in assay [7], in assay [8], in [9], in assay [10], in assay [11] and in assay [12] was greater than 100 µM in each case. In addition, the TGI in assay [13], in [14], in assay [15], in [16], in assay [17] and in [18] was greater than 100 µM each time. The TGI in assay [19] is greater than 100 µM.
`Nc1ncnc2c1ccn2C/C=C\CO`: the TGI in assay [1], in [2], in [3], in assay [4], in [5] and in [6] was greater than 100 µM each time. Besides, the TGI in [7], in [8], in [9], in assay [10], in assay [11] and in assay [13] was greater than 100 µM in each case. Further, the TGI in [20], in [14], in assay [15], in [16], in assay [17] and in [18] was greater than 100 µM throughout. The compound further showed a TGI in [19] greater than 100 µM.
Regarding `COc1cc(C2SCC(=O)N2c2ccccn2)cc(OC)c1OC` (stereo not drawn), the TGI in assay [1], in [2], in assay [3], in assay [4], in assay [5] and in assay [6] was greater than 100 µM throughout. Further, the TGI in assay [7] was greater than 100 µM; in assay [8] it was greater than 100 µM; in assay [10] it was 41.6 µM; in assay [11] it was greater than 100 µM; in assay [12], greater than 100 µM; in [13], greater than 100 µM. Moreover, the TGI in [14], in assay [15], in [16], in assay [17], in assay [18] and in [19] was greater than 100 µM throughout.
On to `COC(=O)c1ccc(C(=O)NC(Cc2ccc(Oc3cc(CC(NC(=O)c4ccccc4C(=O)OC)C(=O)OC)ccc3OC)cc2)C(=O)OC)cc1` (stereo not drawn), for which the TGI in assay [1], in assay [2], in [3], in assay [4], in [5] and in assay [6] was greater than 100 µM throughout. For the same compound, the TGI in assay [7], in assay [8], in assay [9], in assay [10], in assay [11] and in assay [12] was greater than 100 µM each time. Moreover, the TGI in assay [13], in assay [14], in [15], in [16], in assay [18] and in [19] was greater than 100 µM each time.
Turning to `COC(=O)CC(C#N)(OP1(=O)OC(c2ccccc2)C(C)N1C)c1ccccc1` (stereo not drawn), the TGI was 83 µM in assay [1]; greater than 100 µM in assay [2]; 69.3 µM in assay [3]; 38.7 µM in assay [4]; greater than 100 µM in assay [5]; greater than 100 µM in assay [6]. Moreover, the TGI was greater than 100 µM in assay [7]; 48.8 µM in [8]; greater than 100 µM in assay [9]; 75.4 µM in assay [10]; 59.2 µM in [11]; greater than 100 µM in assay [13]. The TGI in assay [20] is 52.3 µM; in assay [14], greater than 100 µM; in [15] it was greater than 100 µM; in [16], greater than 100 µM; in assay [17] it was 87.3 µM; in assay [18] it was 46.4 µM. Also, in [19], the TGI turned out to be 27.2 µM.
As to `COc1cccc2c1OC(c1ccc(Cl)cc1)C([N+](=O)[O-])=C2` (stereo not drawn), the TGI in assay [1] amounted to 3.63 µM; in assay [2] it was 3.38 µM; in [3], 10.7 µM; in assay [4], 4 µM; in [5], 5.74 µM; in assay [6], 13.2 µM. Further, the TGI in assay [7] stood at 9.19 µM; in assay [8], 4.84 µM; in assay [9], 5.32 µM; in [10], 3.45 µM; in assay [11], 8.58 µM; in assay [13], 5.3 µM. The TGI worked out at 3.32 µM in assay [20]; 13.9 µM in [14]; 7.19 µM in assay [15]; 16 µM in assay [16]; 5.77 µM in [17]; 8.39 µM in assay [18]. The TGI in assay [19] stood at 3.44 µM.
Turning to `O=C1NC(NNc2ccccc2)=N/C1=C\c1ccccc1O`, the TGI in [1], in assay [2], in assay [3], in assay [5], in assay [6] and in assay [7] was greater than 100 µM throughout. The TGI was greater than 100 µM in [8]; greater than 100 µM in assay [9]; greater than 100 µM in assay [10]; greater than 100 µM in assay [11]; greater than 100 µM in assay [12]; 82 µM in [13]. Moreover, the TGI in assay [20], in assay [14], in assay [15], in [16], in [17] and in assay [18] was greater than 100 µM in each case. In assay [19], this compound came in with a TGI greater than 100 µM.
Turning to `CCOC(=O)c1c(-c2ccc(OC)cc2)c(C#N)c(=S)n(C2OC(COC(C)=O)C(OC(C)=O)C(OC(C)=O)C2OC(C)=O)c1-c1ccccc1` (stereo not drawn), the TGI in assay [1], in assay [2], in [3], in [4], in assay [6] and in [7] was greater than 100 µM in each case. For the same compound, the TGI in [8], in assay [9], in [10], in [11], in assay [13] and in [20] was greater than 100 µM in each case. The TGI in [14], in [15], in [16], in assay [17], in [18] and in assay [19] was greater than 100 µM in each case.
Take `O=C(C=P(c1ccccc1)(c1ccccc1)c1ccccc1)c1ccc(-c2cccc([N+](=O)[O-])c2)s1`: the TGI in [1] is greater than 100 µM; in [2], greater than 100 µM; in assay [3], greater than 100 µM; in assay [4] it was greater than 100 µM; in assay [5], 27.9 µM; in assay [6], greater than 100 µM. Also, the TGI is greater than 100 µM in [7]; greater than 100 µM in assay [8]; greater than 100 µM in assay [9]; greater than 100 µM in assay [10]; 55.6 µM in assay [11]; greater than 100 µM in assay [13]. For the same compound, the TGI in assay [20], in [14], in assay [15], in assay [16], in [17] and in [19] was greater than 100 µM each time.
`CC(C)(Cl)C(Br)CCC(C)(Cl)C(Br)CBr` (stereo not drawn): the TGI in assay [1] worked out at 61.9 µM; in assay [2], 42.9 µM; in assay [4] it was 76.9 µM; in [5] it was 33.8 µM; in [6], 85.2 µM; in assay [7] it was 65.4 µM. Moreover, the TGI was 41 µM in [9]; 81.9 µM in [10]; greater than 100 µM in [11]; 60.6 µM in assay [12]; 71 µM in assay [13]; 65.9 µM in [20]. Also, the TGI in assay [14] is greater than 100 µM; in assay [15] it was 79.7 µM; in [16], 99.6 µM; in assay [17], 69.5 µM; in assay [18], 51 µM; in assay [19], greater than 100 µM.
With `NC1CC(=O)c2c(Br)csc21` (stereo not drawn), the TGI in assay [1] was greater than 100 µM; in assay [2], 97.5 µM; in assay [3], greater than 100 µM; in [4] it was greater than 100 µM; in assay [5] it was greater than 100 µM; in [6] it was greater than 100 µM. Moreover, the TGI in assay [7], in assay [8], in [9], in [10], in [11] and in assay [13] was greater than 100 µM each time. The TGI in [20] was greater than 100 µM; in [14] it was greater than 100 µM; in assay [15], 79.9 µM; in assay [16] it was 96.7 µM; in [17], 53.1 µM; in [18] it was greater than 100 µM. In assay [19], this compound showed a TGI of 81.2 µM.
